Values of other authors as cited in patent EP0972007B1, “DETERGENT COMPOSITIONS” (UNILEVER PLC, priority 1997, dated 1998).

Conditions: for Water Solubility (g/100g): grams of solid to form a saturated solution in 100 grams of water at 20°C

Water Solubility (g/100g) | solubility in water (at 20°C) | SMILES
15 | – | O=P(O)(O)OP(=O)(O)OP(=O)(O)O [Sodium tripolyphosphate anhydrous]
>100 | exceeding 100 gms per 100ml water | NC(N)=O [Urea]

SMILES | Water Solubility (g/100g) | solubility in water (at 20°C)
O=BO[O-].[Na+] [Sodium perborate anhydrous] | 3.7 | –
